Reference: ChEMBL document CHEMBL5523749, “Amphiphilic Heparinoids as Potent Antiviral Agents against SARS-CoV-2” (J Med Chem, 2024)
≈ marks a conversion by molar mass, not a printed value.

Columns and labels:
SARS-CoV-2 [1] = format: functional, organism-based, Severe acute respiratory syndrome coronavirus 2, G614, Vero E6
SARS-CoV-2 [2] = test: microbe, parasite or virus in culture; details: Severe acute respiratory syndrome coronavirus 2, D614, Vero C1008
Description: Antiviral activity against SARS-CoV-2 D614 isolates infected in African green monkey Vero E6 cells assessed as reduction in plaque formation treated for 1 hr prior to infection with cells incubated for 30 mins by plaque reduction neutralization test

Spike glycoprotein = Spike glycoprotein (Severe acute respiratory syndrome coronavirus 2, UniProt P0DTC2); test: Binding affinity to RBD domain of SARS-CoV-2 spike protein assessed as dissociation constant by Isothermal Titration Calorimetry
[3] = Severe acute respiratory syndrome coronavirus 2, G614, Vero C1008, read-out: IC50

Compound | IC50 (SARS-CoV-2 [1]; [3]) [µg/mL] | IC50 (SARS-CoV-2 [2]) [µg/mL] | IC50 (SARS-CoV-2 [1]; vero e6) | Kd (Spike glycoprotein) [µM]
C[C@H](CCC[C@@H](C)[C@H]1CC[C@@H]2C1CC[C@H]1[C@H]2CC[C@H]2C[C@@H](O[C@@H]3O[C@H](COS(=O)(=O)[O-])[C@@H](O[C@H]4O[C@H](COS(=O)(=O)[O-])[C@@H](O[C@H]5O[C@H](COS(=O)(=O)[O-])[C@@H](O[C@H]6O[C@H](COS(=O)(=O)[O-])[C@@H](OS(=O)(=O)[O-])[C@H](OS(=O)(=O)[O-])[C@H]6OS(=O)(=O)[O-])[C@H](OS(=O)(=O)[O-])[C@H]5OS(=O)(=O)[O-])[C@H](OS(=O)(=O)[O-])[C@H]4OS(=O)(=O)[O-])[C@H](OS(=O)(=O)[O-])[C@H]3OS(=O)(=O)[O-])CC[C@@]21C)CN=[N+]=[N-].[Na+].[Na+].[Na+].[Na+].[Na+].[Na+].[Na+].[Na+].[Na+].[Na+].[Na+].[Na+].[Na+] (stereo partly drawn) | 109 | 16.7 | – | –
O=C(CCCCCCCCCCn1cc(CNc2ccc([N+](=O)[O-])c3nonc23)nn1)NCCCCCCCCCCCO[C@@H]1O[C@H](COS(=O)(=O)[O-])[C@@H](O[C@H]2O[C@H](COS(=O)(=O)[O-])[C@@H](O[C@H]3O[C@H](COS(=O)(=O)[O-])[C@@H](O[C@H]4O[C@H](COS(=O)(=O)[O-])[C@@H](OS(=O)(=O)[O-])[C@H](OS(=O)(=O)[O-])[C@H]4OS(=O)(=O)[O-])[C@H](OS(=O)(=O)[O-])[C@H]3OS(=O)(=O)[O-])[C@H](OS(=O)(=O)[O-])[C@H]2OS(=O)(=O)[O-])[C@H](OS(=O)(=O)[O-])[C@H]1OS(=O)(=O)[O-].[Na+].[Na+].[Na+].[Na+].[Na+].[Na+].[Na+].[Na+].[Na+].[Na+].[Na+].[Na+].[Na+] | – | 166 | Not Active | –
CC(C)CCC[C@@H](C)[C@H]1CC[C@H]2[C@@H]3CC[C@H]4C[C@@H](O[C@@H]5O[C@@H](COS(=O)(=O)O)[C@@H](O[C@@H]6O[C@@H](COS(=O)(=O)O)[C@@H](O[C@@H]7O[C@@H](COS(=O)(=O)O)[C@@H](O[C@@H]8O[C@@H](COS(=O)(=O)O)[C@@H](OS(=O)(=O)O)[C@H](O)[C@H]8OS(=O)(=O)O)[C@H](O)[C@H]7OS(=O)(=O)O)[C@H](O)[C@H]6OS(=O)(=O)O)[C@H](O)[C@H]5OS(=O)(=O)O)CC[C@]4(C)[C@H]3CC[C@]12C | – | 27.5 (≈ 15.6 µM) | – | –
CC(C)CCC[C@@H](C)[C@H]1CC[C@H]2[C@@H]3CC[C@H]4C[C@@H](O[C@@H]5O[C@@H](C(=O)O)[C@@H](O[C@@H]6O[C@@H](C(=O)O)[C@@H](O[C@@H]7O[C@@H](C(=O)O)[C@@H](OS(=O)(=O)O)[C@H](O)[C@H]7OS(=O)(=O)O)[C@H](O)[C@H]6OS(=O)(=O)O)[C@H](O)[C@H]5OS(=O)(=O)O)CC[C@]4(C)[C@H]3CC[C@]12C | – | 30.4 (≈ 24.6 µM) | – | 9.18
CC(C)CCC[C@@H](C)[C@H]1CC[C@H]2[C@@H]3CC[C@H]4C[C@@H](O[C@@H]5O[C@@H](C(=O)O)[C@@H](O[C@@H]6O[C@@H](C(=O)O)[C@@H](O[C@@H]7O[C@@H](C(=O)O)[C@@H](O[C@@H]8O[C@@H](C(=O)O)[C@@H](OS(=O)(=O)O)[C@H](O)[C@H]8OS(=O)(=O)O)[C@H](O)[C@H]7OS(=O)(=O)O)[C@H](O)[C@H]6OS(=O)(=O)O)[C@H](O)[C@H]5OS(=O)(=O)O)CC[C@]4(C)[C@H]3CC[C@]12C | – | 48.5 (≈ 32.5 µM) | – | –
CC(C)CCC[C@@H](C)[C@H]1CC[C@H]2[C@@H]3CC[C@H]4C[C@@H](O[C@@H]5O[C@@H](COS(=O)(=O)O)[C@@H](O[C@@H]6O[C@@H](COS(=O)(=O)O)[C@@H](OS(=O)(=O)O)[C@H](O)[C@H]6OS(=O)(=O)O)[C@H](O)[C@H]5OS(=O)(=O)O)CC[C@]4(C)[C@H]3CC[C@]12C | – | 32.1 (≈ 28.8 µM) | – | –
CC(C)CCC[C@@H](C)[C@H]1CC[C@H]2[C@@H]3CC[C@H]4C[C@@H](OCc5cn(CCCO[C@@H]6O[C@H](COS(=O)(=O)[O-])[C@@H](O[C@H]7O[C@H](COS(=O)(=O)[O-])[C@@H](O[C@H]8O[C@H](COS(=O)(=O)[O-])[C@@H](O[C@H]9O[C@H](COS(=O)(=O)[O-])[C@@H](OS(=O)(=O)[O-])[C@H](OS(=O)(=O)[O-])[C@H]9OS(=O)(=O)[O-])[C@H](OS(=O)(=O)[O-])[C@H]8OS(=O)(=O)[O-])[C@H](OS(=O)(=O)[O-])[C@H]7OS(=O)(=O)[O-])[C@H](OS(=O)(=O)[O-])[C@H]6OS(=O)(=O)[O-])nn5)CC[C@]4(C)[C@H]3CC[C@]12C.[Na+].[Na+].[Na+].[Na+].[Na+].[Na+].[Na+].[Na+].[Na+].[Na+].[Na+].[Na+].[Na+] | 310 | 115 | – | –
C#CCNC(=O)CC[C@@H](C)[C@H]1CC[C@H]2[C@@H]3CC[C@@H]4C[C@H](O[C@@H]5O[C@H](COS(=O)(=O)[O-])[C@@H](O[C@H]6O[C@H](COS(=O)(=O)[O-])[C@@H](O[C@H]7O[C@H](COS(=O)(=O)[O-])[C@@H](O[C@H]8O[C@H](COS(=O)(=O)[O-])[C@@H](OS(=O)(=O)[O-])[C@H](OS(=O)(=O)[O-])[C@H]8OS(=O)(=O)[O-])[C@H](OS(=O)(=O)[O-])[C@H]7OS(=O)(=O)[O-])[C@H](OS(=O)(=O)[O-])[C@H]6OS(=O)(=O)[O-])[C@H](OS(=O)(=O)[O-])[C@H]5OS(=O)(=O)[O-])CC[C@]4(C)[C@H]3CC[C@]12C.[Na+].[Na+].[Na+].[Na+].[Na+].[Na+].[Na+].[Na+].[Na+].[Na+].[Na+].[Na+].[Na+] | – | 85.3 | Not Active | –
CC(C)CCC[C@@H](C)[C@H]1CC[C@H]2[C@@H]3CC[C@H]4C[C@@H](O[C@@H]5O[C@@H](COS(=O)(=O)O)[C@@H](O[C@@H]6O[C@@H](COS(=O)(=O)O)[C@@H](O[C@@H]7O[C@@H](COS(=O)(=O)O)[C@@H](OS(=O)(=O)O)[C@H](O)[C@H]7OS(=O)(=O)O)[C@H](O)[C@H]6OS(=O)(=O)O)[C@H](O)[C@H]5OS(=O)(=O)O)CC[C@]4(C)[C@H]3CC[C@]12C | – | 26.9 (≈ 18.7 µM) | – | 2.11
CCCCCCCCCCCCCCCCCC(=O)NCCCO[C@@H]1O[C@H](COS(=O)(=O)[O-])[C@@H](O[C@H]2O[C@H](COS(=O)(=O)[O-])[C@@H](O[C@H]3O[C@H](COS(=O)(=O)[O-])[C@@H](O[C@H]4O[C@H](COS(=O)(=O)[O-])C(S(=O)(=O)[O-])[C@H](OS(=O)(=O)[O-])[C@H]4OS(=O)(=O)[O-])[C@H](OS(=O)(=O)[O-])[C@H]3OS(=O)(=O)[O-])[C@H](OS(=O)(=O)[O-])[C@H]2OS(=O)(=O)[O-])[C@H](OS(=O)(=O)[O-])[C@H]1OS(=O)(=O)[O-].[Na+].[Na+].[Na+].[Na+].[Na+].[Na+].[Na+].[Na+].[Na+].[Na+].[Na+].[Na+].[Na+] (stereo partly drawn) | 70.8 | 19.5 | – | –
CC(C)CCC[C@@H](C)[C@H]1CC[C@H]2[C@@H]3CC[C@H]4C[C@@H](O[C@@H]5O[C@H](COS(=O)(=O)[O-])[C@@H](O[C@H]6O[C@H](COS(=O)(=O)[O-])[C@@H](O[C@H]7O[C@H](COS(=O)(=O)[O-])[C@@H](O[C@H]8O[C@H](COS(=O)(=O)[O-])[C@@H](O[C@H]9O[C@H](COS(=O)(=O)[O-])[C@@H](O[C@H]%10O[C@H](COS(=O)(=O)[O-])[C@@H](OS(=O)(=O)[O-])[C@H](OS(=O)(=O)[O-])[C@H]%10OS(=O)(=O)[O-])[C@H](OS(=O)(=O)[O-])[C@H]9OS(=O)(=O)[O-])[C@H](OS(=O)(=O)[O-])[C@H]8OS(=O)(=O)[O-])[C@H](OS(=O)(=O)[O-])[C@H]7OS(=O)(=O)[O-])[C@H](OS(=O)(=O)[O-])[C@H]6OS(=O)(=O)[O-])[C@H](OS(=O)(=O)[O-])[C@H]5OS(=O)(=O)[O-])CC[C@]4(C)[C@H]3CC[C@]12C.[Na+].[Na+].[Na+].[Na+].[Na+].[Na+].[Na+].[Na+].[Na+].[Na+].[Na+].[Na+].[Na+].[Na+].[Na+].[Na+].[Na+].[Na+].[Na+] | 65.9 | 11.9 | – | –
[N-]=[N+]=NCCCCCCCCCCC(=O)NCCCCCCO[C@@H]1O[C@H](COS(=O)(=O)[O-])[C@@H](O[C@H]2O[C@H](COS(=O)(=O)[O-])[C@@H](O[C@H]3O[C@H](COS(=O)(=O)[O-])[C@@H](O[C@H]4O[C@H](COS(=O)(=O)[O-])[C@@H](OS(=O)(=O)[O-])[C@H](OS(=O)(=O)[O-])[C@H]4OS(=O)(=O)[O-])[C@H](OS(=O)(=O)[O-])[C@H]3OS(=O)(=O)[O-])[C@H](OS(=O)(=O)[O-])[C@H]2OS(=O)(=O)[O-])[C@H](OS(=O)(=O)[O-])[C@H]1OS(=O)(=O)[O-].[Na+].[Na+].[Na+].[Na+].[Na+].[Na+].[Na+].[Na+].[Na+].[Na+].[Na+].[Na+].[Na+] | 158 | 101 | – | –
CC(C)CCC[C@@H](C)[C@H]1CC[C@H]2[C@@H]3CC[C@H]4C[C@@H](O[C@H]5O[C@H](COS(=O)(=O)[O-])[C@@H](O[C@H]6O[C@H](COS(=O)(=O)[O-])[C@@H](O[C@H]7O[C@H](COS(=O)(=O)[O-])[C@@H](O[C@H]8O[C@H](COS(=O)(=O)[O-])[C@@H](OS(=O)(=O)[O-])[C@H](OS(=O)(=O)[O-])[C@H]8OS(=O)(=O)[O-])[C@H](OS(=O)(=O)[O-])[C@H]7OS(=O)(=O)[O-])[C@H](OS(=O)(=O)[O-])[C@H]6OS(=O)(=O)[O-])[C@H](OS(=O)(=O)[O-])[C@H]5OS(=O)(=O)[O-])CC[C@]4(C)[C@H]3CC[C@]12C.[Na+].[Na+].[Na+].[Na+].[Na+].[Na+].[Na+].[Na+].[Na+].[Na+].[Na+].[Na+].[Na+] | – | 148 | Not Active | –
